This note sets out measurements from article PMC11593465, “Na^+ Translocation Dominates over H^+-Translocation in the Membrane Pyrophosphatase with Dual Transport Specificity” (International Journal of Molecular Sciences, 2024).

Series [1] addresses T1, Dh-mPPase (H+-translocating mPPase of Desulfitobacterium hafniense) (Desulfitobacterium hafniense, UniProt B8FXV7).
T1 construct: gene hppA; recombinant, expressed in E. coli C41(DE3), in inverted membrane vesicles; homodimer of approx. 70-kDa subunits
T1 sequence (B8FXV7 1-671): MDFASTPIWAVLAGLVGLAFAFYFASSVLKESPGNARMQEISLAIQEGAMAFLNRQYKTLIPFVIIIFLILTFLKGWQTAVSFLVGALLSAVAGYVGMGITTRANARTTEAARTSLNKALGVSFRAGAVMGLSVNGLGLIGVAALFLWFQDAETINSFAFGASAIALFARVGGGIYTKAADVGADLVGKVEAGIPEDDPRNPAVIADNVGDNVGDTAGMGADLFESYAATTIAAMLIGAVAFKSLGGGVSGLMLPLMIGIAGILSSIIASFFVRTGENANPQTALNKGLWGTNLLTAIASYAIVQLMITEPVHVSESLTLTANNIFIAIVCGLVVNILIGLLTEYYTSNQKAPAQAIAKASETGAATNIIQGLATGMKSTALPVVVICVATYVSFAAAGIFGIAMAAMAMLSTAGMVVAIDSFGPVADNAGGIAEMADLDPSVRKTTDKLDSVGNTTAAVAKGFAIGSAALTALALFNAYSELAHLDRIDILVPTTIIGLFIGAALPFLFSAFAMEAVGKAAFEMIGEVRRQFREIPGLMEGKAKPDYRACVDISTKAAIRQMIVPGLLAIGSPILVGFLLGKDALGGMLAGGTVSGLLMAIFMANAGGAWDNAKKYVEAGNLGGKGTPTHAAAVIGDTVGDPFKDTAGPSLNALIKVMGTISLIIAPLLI
Put plainly: PPi hydrolysis (continuous Pi assay) and pyranine H+ transport assay, membrane vesicles. Conditions: 150 µM PPi, 5 mM MgSO4, 5 mM Na2SO4, 25 mM K2SO4, 100 mM Mops-KOH pH 7.2. It counts as biochemical.

Series [2] has as its target T2, Da-mPPase (Na+-translocating mPPase of Desulfuromonas acetoxidans) (Desulfuromonas acetoxidans, UniProt Q1JY39).
T2 construct: gene hppA; recombinant, expressed in E. coli C41(DE3), in inverted membrane vesicles; homodimer of approx. 70-kDa subunits
The series can be described thus: PPi hydrolysis (continuous Pi assay) and pyranine Na+ transport assay, membrane vesicles. Format: biochemical. Conditions: 150 µM PPi, 5 mM MgSO4, 5 mM Na2SO4, 25 mM K2SO4, 100 mM Mops-KOH pH 7.2.

Substrate in series [3]: O=P(O)(O)OP(=O)(O)O
Put plainly: cells, lysate or membranes. It counts as biochemical, Phocaeicola vulgatus. The following applies: total PPi, first (stronger) of two sites in the dimer, macroscopic constant, 4.8 mM free Mg2+, 10 mM Na+ (5 mM Na2SO4), 25 mM K2SO4, 100 mM Mops-KOH pH 7.2, 25 °C.

T2 sequence (Q1JY39 1-668): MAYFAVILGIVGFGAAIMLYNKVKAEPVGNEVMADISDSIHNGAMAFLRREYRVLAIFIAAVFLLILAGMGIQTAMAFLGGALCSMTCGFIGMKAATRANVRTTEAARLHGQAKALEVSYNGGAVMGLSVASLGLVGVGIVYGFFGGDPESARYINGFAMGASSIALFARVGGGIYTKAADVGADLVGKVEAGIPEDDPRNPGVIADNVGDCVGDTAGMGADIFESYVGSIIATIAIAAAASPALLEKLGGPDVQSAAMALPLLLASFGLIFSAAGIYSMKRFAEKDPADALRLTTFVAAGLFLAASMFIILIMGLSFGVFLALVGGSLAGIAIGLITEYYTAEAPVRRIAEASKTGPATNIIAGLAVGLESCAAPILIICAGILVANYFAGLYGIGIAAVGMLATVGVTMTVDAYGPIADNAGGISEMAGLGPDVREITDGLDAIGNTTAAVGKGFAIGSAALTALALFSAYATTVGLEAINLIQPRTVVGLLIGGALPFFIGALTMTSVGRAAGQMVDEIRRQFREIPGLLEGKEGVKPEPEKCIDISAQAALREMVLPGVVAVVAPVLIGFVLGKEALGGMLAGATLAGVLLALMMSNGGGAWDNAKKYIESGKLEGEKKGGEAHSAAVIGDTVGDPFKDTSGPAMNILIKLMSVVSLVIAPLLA

`O=P(O)(O)OP(=O)(O)O` [PPi]: the “PPi hydrolysis (continuous Pi assay) and pyranine H+ transport assay, membrane v” value in series [1] is on record as “the PPi addition to Dh-mPPase-containing vesicles progressively decreased pyranine fluorescence”. In series [2], the “PPi hydrolysis (continuous Pi assay) and pyranine Na+ transport assay, membrane” value is reported as “Na^+-translocating Da-mPPase caused monensin-sensitive alkalinization of the vesicle lumen in response to PPi addition”.

B1: Bv-mPPase (Bacteroides vulgatus Na+,H+-translocating mPPase) (Phocaeicola vulgatus ATCC 8482) (protein)
chain: METYLFWIVPIASLLALVLAWYFYKQMMLESEGTPTMEKIASYVRQGAMSYLKQQYKVVGLVFLGLVILFSIMAYGFNLQNPWVPIAFLTGGFFSGLSGFLGMKTATYASARTANAAQHSLNKGLRVAFRSGAVMGLVVVGLGLLDISFWYILLDYCIPTDALNPSAKLCVITTTMLTFGMGASTQALFARVGGGIYTKAADVGADLVGKVEAGIPEDDPRNPATIADNVGDNVGDVAGMGADLYESYCGSILATAALGAAAFIGSDDTVMQFKAVIAPMLIAAVGIVLSIIGIFAVRTKENAGMKELLGSLATGTNLSSVLIVVATFLILWALGLENWVNISFAVVVGLIVGIVIGRSTEYYTSQSYKPTQRLAESGKTGPATVIISGIGLGMVSTTIPVLAVVTGIILSYWLASGFDFANISMGLYGIGIAAVGMLSTLGITLATDAYGPIADNAGGNAEMSGLGKEVRKRTDALDSLGNTTAATGKGFAIGSAALTGLALLASYVEEIRIGLTRLGQTILELPNGITVDVHNASFTDYMLYYDVTLMNPKVLSGMFLGSMMAFLFCGLTMNAVGRAAAHMVEEVRRQFREIKGILTGEAEPDYARCVQISTKGAQREMVFPSLLAIIAPIATGLIFGVPGVIGLLIGGLSSGFVLAIFMANAGGAWDNAKKFIEEGNFGGKGSEVHKATVTGDTVGDPFKDTSGPSLNILIKLMSMVAIVMAGLTVAWSLF
notes: recombinant, expressed in E. coli C41(DE3), in inverted membrane vesicles; homodimer of approx. 70-kDa subunits; EC 7.1.3.1
Turning to B1, the Km in series [3] is 15 ± 1 µM.
